Where two headings read alike, the source gives them in different places. One block for each compound: values may come before it.
What was measured:
[1] = type: in vivo, human; details: for detectability in plasma: after single oral doses of dabigatran etexilate; for AUC(0-inf) / Cmax / Tmax: human, plasma, po
healthy subjects [2] = details: after a single dose; cited from earlier work
[3] = following an oral dose without food; cited from earlier work
healthy subjects [4] = test: Thorough QT study: ECG profiles; type: in vivo, human; details: for ∆∆HR / ∆∆QT / ∆∆QTcI: mean (90 % CI); for Adjusted mean (SE) ∆ QTcI: time-matched change from baseline between 1.5 and 3 h post-dose, n=40
healthy subjects [5] = test: Safety and tolerability evaluation; type: in vivo, human
[6] = system: activated partial thromboplastin time; details: 600 mg dose; achieved at 2–4 h post-dose; pilot study; cited from earlier work
[7] = cited from earlier work
[8] = system: hERG-mediated potassium current; details: human embryonic kidney cells; cited from earlier work
[9] = system: isolated guinea pig papillary muscles; details: concentrations up to 10 μmol/L; cited from earlier work
healthy subjects [10] = type: in vivo, human
anaesthetised pigs = details: up to 3 mg/kg intravenously; cited from earlier work
[11] = cited from earlier work; remark: listed apart in the source
[12] = moxifloxacin 400 mg, 1:00 h post-dose
[13] = moxifloxacin 400 mg, 1:30 h post-dose
[14] = moxifloxacin 400 mg, 2:00 h post-dose
[15] = moxifloxacin 400 mg, 3:00 h post-dose
[16] = moxifloxacin 400 mg, 6:00 h post-dose
[17] = dabigatran etexilate 150 mg, 1:00 h post-dose
[18] = dabigatran etexilate 150 mg, 1:30 h post-dose
[19] = dabigatran etexilate 150 mg, 2:00 h post-dose
[20] = dabigatran etexilate 150 mg, 3:00 h post-dose
[21] = dabigatran etexilate 150 mg, 6:00 h post-dose
[22] = dabigatran etexilate 150 mg, 12:00 h post-dose
[23] = dabigatran etexilate 150 mg, 24:00 h post-dose
[24] = dabigatran etexilate 150 mg, between 1 and 6 h post-dose
[25] = dabigatran etexilate 600 mg, 1:00 h post-dose
[26] = dabigatran etexilate 600 mg, 1:30 h post-dose
[27] = dabigatran etexilate 600 mg, 2:00 h post-dose
[28] = dabigatran etexilate 600 mg, 3:00 h post-dose
[29] = dabigatran etexilate 600 mg, 6:00 h post-dose
[30] = dabigatran etexilate 600 mg, 12:00 h post-dose
[31] = dabigatran etexilate 600 mg, 24:00 h post-dose
[32] = dabigatran etexilate 600 mg, between 1 and 6 h post-dose
[33] = at gMean Cmax of dabigatran etexilate 150 mg dose
[34] = at gMean Cmax of dabigatran etexilate 600 mg dose
[35] = exposure-response analysis for placebo-corrected CfB of HR, post hoc
[36] = exposure-response analysis for placebo-corrected CfB of QTcI, post hoc

SMILES: CCCCCCOC(=O)NC(=N)c1ccc(NCc2nc3cc(C(=O)N(CCC(=O)O)c4ccccn4)ccc3n2C)cc1 [BIBR1087]
- detectability in plasma [1]: only detectable between 0.5 and 3 h post-dosing and then only in very low concentrations

SMILES: COc1c(N2C[C@@H]3CCCN[C@@H]3C2)c(F)cc2c(=O)c(C(=O)O)cn(C3CC3)c12 [Moxifloxacin, moxifloxacin]
- QT-interval prolongation (healthy subjects [2]): 8 to 14 ms
- time of peak plasma concentration [3]: 1 to 4 h
- ∆∆HR (healthy subjects [4]; [12]): 2.4 (0.9 to 3.8) bpm
- ∆∆QT (healthy subjects [4]; [12]): 8.3 (4.7 to 11.9) ms
- ∆∆QTcI (healthy subjects [4]; [12]): 11.1 (8.4 to 13.8) ms
- ∆∆HR (healthy subjects [4]; [13]): 1.3 (0.1 to 2.5) bpm
- ∆∆QT (healthy subjects [4]; [13]): 11.9 (8.3 to 15.5) ms
- ∆∆QTcI (healthy subjects [4]; [13]): 12.8 (10.2 to 15.6) ms
- ∆∆HR (healthy subjects [4]; [14]): 0.4 (−1.0 to 1.7) bpm
- ∆∆QT (healthy subjects [4]; [14]): 13.6 (10.4 to 16.9) ms
- ∆∆QTcI (healthy subjects [4]; [14]): 14.1 (11.7 to 16.5) ms
- ∆∆QTcI (healthy subjects [4]; moxifloxacin 400 mg, 2:00 h post-dose, listed as moxifloxacin): 14.1 ms
- ∆∆HR (healthy subjects [4]; [15]): 2.7 (1.1 to 4.4) bpm
- ∆∆QT (healthy subjects [4]; [15]): 10.3 (6.9 to 13.8) ms
- ∆∆QTcI (healthy subjects [4]; [15]): 14.1 (11.4 to 16.7) ms
- ∆∆HR (healthy subjects [4]; [16]): 1.5 (0.1 to 2.8) bpm
- ∆∆QT (healthy subjects [4]; [16]): 9.2 (6.1 to 12.2) ms
- ∆∆QTcI (healthy subjects [4]; [16]): 10.4 (8.0 to 12.8) ms
- Mean (SE) [90 % CI] ∆∆ QTcI (healthy subjects [4]; moxifloxacin 400 mg, placebo-corrected change from baseline between 1.5 and 3 h post-dose): 14.2 ms
- Global tolerability (good / satisfactory / not satisfactory / bad) (healthy subjects [5]; investigator-assessed): one subject who responded ‘not satisfactory’
- subjects with adverse events within the treatment period (healthy subjects [5]; moxifloxacin 400 mg, one subject of 40 ('feeling dazed')): 2.5%

- Mean Cmax with 600 mg relative to 150 mg dose ([1]; dabigatran etexilate 600 mg versus 150 mg): approximately fourfold higher
- Cmax after 600 mg relative to steady-state concentration in patients ([1]; versus patients receiving dabigatran etexilate 150 mg once daily): 4 times
- Cmax after 600 mg relative to steady-state concentration in patients ([1]; versus patients receiving dabigatran etexilate 150 mg twice daily): 2.6 times
SMILES: CCCCCCOC(=O)NC(=N)c1ccc(NCc2nc3cc(C(=O)N(CCC(=O)OCC)c4ccccn4)ccc3n2C)cc1 [Dabigatran etexilate]
- upper bound of the two-sided 90 % CI of the largest time-matched mean difference from placebo (QTcI) (healthy subjects [4]; both dose levels (150 mg and 600 mg), 0.5 to 24 h post-dose): 3 to 4 ms
- upper limit of 95 % CI, secondary endpoints (QTcI versus placebo) (healthy subjects [4]; both doses (150 mg and 600 mg)): below 4 ms
- upper limit of the 95 % CI, primary endpoint (QTcI versus placebo) (healthy subjects [4]; both doses (150 mg and 600 mg)): approximately 1.5 ms
- Adjusted mean (SE) ∆ QTcI (healthy subjects [4]; dabigatran etexilate 150 mg single oral dose): −4.9 (1.1) ms
- ∆∆HR (healthy subjects [4]; [17]): 0.7 (−0.5 to 1.8) bpm
- ∆∆QTcI (healthy subjects [4]; [17]): −0.1 (−2.5 to 2.2) ms
- ∆∆HR (healthy subjects [4]; [18]): −0.3 (−1.4 to 0.8) bpm
- ∆∆QT (healthy subjects [4]; [18]): −0.6 (−3.3 to 2.1) ms
- ∆∆QTcI (healthy subjects [4]; [18]): −1.4 (−3.2 to 0.4) ms
- ∆∆HR (healthy subjects [4]; [19]): −0.3 (−1.5 to 0.8) bpm
- ∆∆QT (healthy subjects [4]; [19]): −0.2 (−2.9 to 2.6) ms
- ∆∆QTcI (healthy subjects [4]; [19]): −0.7 (−2.9 to 1.6) ms
- ∆∆QT (healthy subjects [4]; [20]): −1.9 (−4.9 to 1.0) ms
- ∆∆QTcI (healthy subjects [4]; [20]): −1.1 (−3.3 to 1.2) ms
- ∆∆QT (healthy subjects [4]; [21]): −0.5 (−3.8 to 2.7) ms
- ∆∆QTcI (healthy subjects [4]; [21]): −0.4 (−3.0 to 2.2) ms
- ∆∆HR (healthy subjects [4]; [22]): −0.4 (−1.7 to 0.9) bpm
- ∆∆QT (healthy subjects [4]; [22]): 1.3 (−1.8 to 4.5) ms
- ∆∆QTcI (healthy subjects [4]; [22]): 0.9 (−1.7 to 3.5) ms
- ∆∆HR (healthy subjects [4]; [23]): −0.1 (−1.1 to 1.0) bpm
- ∆∆QT (healthy subjects [4]; [23]): −0.2 (−2.8 to 2.5) ms
- ∆∆QTcI (healthy subjects [4]; [23]): −0.1 (−1.9 to 1.7) ms
- mean time-matched CfB of QTcI (healthy subjects [4]; [24]): -5.3 ms
- upper bound of the two-sided 90 % CI of placebo-adjusted CfB of QTcI (healthy subjects [4]; [24]): 1.5 ms
- upper bound of the two-sided 90 % CI of placebo-adjusted CfB of QTcI (healthy subjects [4]; dabigatran etexilate 150 mg, between 1.5 and 3 h post-dose): 1.4 ms
- Adjusted mean (SE) ∆ QTcI (healthy subjects [4]; dabigatran etexilate 600 mg single oral dose): −5.0 (1.1) ms
- ∆∆HR (healthy subjects [4]; [25]): 0.5 (−0.6 to 1.6) bpm
- ∆∆QT (healthy subjects [4]; [25]): −1.8 (−5.2 to 1.5) ms
- ∆∆QTcI (healthy subjects [4]; [25]): −1.5 (−3.8 to 0.9) ms
- ∆∆HR (healthy subjects [4]; [26]): −0.3 (−1.5 to 0.8) bpm
- ∆∆QT (healthy subjects [4]; [26]): −0.6 (−3.3 to 2.1) ms
- ∆∆QTcI (healthy subjects [4]; [26]): −1.7 (−3.5 to 0.2) ms
- ∆∆HR (healthy subjects [4]; [27]): −1.1 (−2.2 to 0.1) bpm
- ∆∆QT (healthy subjects [4]; [27]): −0.9 (−3.7 to 1.8) ms
- ∆∆QTcI (healthy subjects [4]; [27]): −2.6 (−4.8 to −0.4) ms
- ∆∆HR (healthy subjects [4]; [28]): 1.5 (−0.1 to 2.9) bpm
- ∆∆QT (healthy subjects [4]; [28]): −2.9 (−5.8 to 0.1) ms
- ∆∆QTcI (healthy subjects [4]; [28]): −1.1 (−3.3 to 1.1) ms
- ∆∆HR (healthy subjects [4]; [29]): 0.6 (−0.7 to 1.9) bpm
- ∆∆QT (healthy subjects [4]; [29]): −1.1 (−4.3 to 2.2) ms
- ∆∆QTcI (healthy subjects [4]; [29]): −0.8 (−3.4 to 1.8) ms
- ∆∆HR (healthy subjects [4]; [30]): −0.2 (−1.5 to 1.1) bpm
- ∆∆QT (healthy subjects [4]; [30]): 1.0 (−2.1 to 4.2) ms
- ∆∆QTcI (healthy subjects [4]; [30]): 0.4 (−2.2 to 3.0) ms
- ∆∆HR (healthy subjects [4]; [31]): 1.1 (0.0 to 2.2) bpm
- ∆∆QTcI (healthy subjects [4]; [31]): −1.6 (−3.4 to 0.2) ms
- mean time-matched CfB of QTcI (healthy subjects [4]; [32]): -5.4 ms
- upper bound of the two-sided 90 % CI of placebo-adjusted CfB of QTcI (healthy subjects [4]; [32]): 1.4 ms
- upper bound of the two-sided 90 % CI of placebo-adjusted CfB of QTcI (healthy subjects [4]; dabigatran etexilate 600 mg, between 1.5 and 3 h post-dose): 1.3 ms
- prolongation of QTcN, QTcF, uncorrected QT and QTcB (healthy subjects [4]; either dabigatran etexilate dose): none of these parameters was prolonged
- prolongation of the QT interval (healthy subjects [4]; overall study result): ≤ 5 ms
- QT prolongation or arrhythmogenic effects (conclusion) (healthy subjects [4]; therapeutic (150 mg) and supratherapeutic (600 mg) doses): not associated with QT prolongation or arrhythmogenic effects
- detectability in plasma [1]: only detectable between 0.5 and 3 h post-dosing and then only in very low concentrations
- increase in activated partial thromboplastin time [6]: two- to threefold increase
- steady-state concentration ([7]; patients receiving dabigatran etexilate 150 mg once daily): 99.2 ng/mL
- steady-state concentration ([7]; patients receiving dabigatran etexilate 150 mg twice daily): 146 ng/mL
- subjects with adverse events within the treatment period (healthy subjects [5]; dabigatran etexilate 150 mg, three subjects of 40): 7.5%
- subjects with adverse events within the treatment period (healthy subjects [5]; dabigatran etexilate 600 mg, four subjects of 40): 10%
- tolerability (healthy subjects [5]; single oral doses of 150 mg and 600 mg): well tolerated

SMILES: CCOC(=O)CCN(C(=O)c1ccc2c(c1)nc(CNc1ccc(C(=N)N)cc1)n2C)c1ccccn1 [BIBR951]
- detectability in plasma [1]: only detectable between 0.5 and 3 h post-dosing and then only in very low concentrations

- Predicted value of ∆∆HR at Cmax (90 % CI) (healthy subjects [10]; [33]): 0.3 (−0.4 to 1.0) bpm
- Predicted value of ∆∆HR at Cmax (90 % CI) (healthy subjects [10]; [34]): 0.4 (−0.9 to 1.7) bpm
- PK-∆∆HR intercept (healthy subjects [10]; [35]): 0.26 bpm
- PK-∆∆HR slope (healthy subjects [10]; [35]): 0.0005 bpm/[ng/mL]
- AUC(0-inf) ([1]; 150 mg): 540 ng·h/mL
- Cmax ([1]; 150 mg): 71.4 ng/mL
- Tmax ([1]; 150 mg): 2.03 h
- AUC(0-inf) ([1]; 600 mg): 2230 ng·h/mL
- Cmax ([1]; 600 mg): 281 ng/mL
- Tmax ([1]; 600 mg): 3 h
SMILES: [H]/N=C(/N)c1ccc(NCc2nc3cc(C(=O)N(CCC(=O)O)c4ccccn4)ccc3n2C)cc1 [dabigatran]
- effect on hERG-mediated potassium current [8]: did not modify the hERG-mediated potassium current
- changes in QT interval [9]: no noteworthy changes in QT interval
- Predicted value of ∆∆QTcI at Cmax (90 % CI) (healthy subjects [10]; [33]): 0.4 (−0.9 to 1.7) ms
- Predicted value of ∆∆QTcI at Cmax (90 % CI) (healthy subjects [10]; [34]): 0.5 (−1.5 to 2.6) ms
- PK-∆∆QTcI intercept (healthy subjects [10]; [36]): 0.34 ms
- PK-∆∆QTcI slope (healthy subjects [10]; [36]): ~0 ms/[ng/mL]
- PK-∆∆QTcI slope (healthy subjects [10]; exposure-response analysis for placebo-corrected CfB of QTcI, post hoc, listed as Free non-conjugated dabigatran): 0.0006 ms/[ng/mL]
- 90 % CI of the predicted value of placebo-corrected CfB of QTcI at gMean Cmax (healthy subjects [10]; total and free dabigatran, each dose (all four analyses)): below 3 ms
- influence on cardiovascular parameters (anaesthetised pigs): no influence on cardiovascular parameters
- half-life [11]: 12 to 17 h

From paper PMC3634983 (Clinical Drug Investigation, 2013)
